In patent publication US20040171062A1, “Methods for the design of molecular scaffolds and ligands” (Plexxikon, Inc., priority 2002, published 2004):
Each block holds one molecule with its values, some of them ahead of it.

How the values were obtained:
Type in all cases: biochemical
[1] = target: T1, Pyk2 kinase domain residues 419 to 691 (Homo sapiens, UniProt Q14289); test: Pyk2 kinase domain AlphaScreen activity and inhibition by ATP analogs; details: Pyk2 at 8 ng/well, ATP at 10 uM; for IC50: fit y = ((Vmax*x^n)/(K^n + x^n)) + Y2; for effect on PYK2: in the concentration tested
T1 construct: PYK2 kinase domain I420-M691; hexa-histidine (thrombin-cleavable, pET15S; leaves GSHM before I420) (N, cleaved yes); made in house; host or cells: E. coli BL21 (DE3) pLysS
Method: Inhibition by ATP analogs was tested with Pyk2 at 8 ng/well and ATP at 10 uM.

[2] = target: T1, Pyk2 kinase domain residues 419 to 691; test: as above
Pyk2 = target: T2, Pyk2 (Homo sapiens, UniProt Q14289); test: Pyk-2 inhibitory activity (kinase ELISA, poly(Glu:Tyr))
T2 construct: the Pyk2 was the kinase domain-(His)6 fusion; (His)6 (C); made in house; host or cells: E. coli BL21
Method: Csk (and Pyk2 in a separate assay) were mixed with poly(Glu:Tyr) and coated on an ELISA plate in kinase buffer. Test compounds were added to each well at a concentration of about 200 uM. ATP was added to a final concentration of 2 uM. After 1 hour of incubation at 37 C, phospho-Tyr was detected with ELISA solution. Color development of TMB was measured at 650 nm. The Csk was the (His)6-kinase domain fusion, and the Pyk2 was the kinase domain-(His)6 fusion, both produced in BL21 E. coli. The kinase buffer was 50 mM HEPES, pH 7.2 with 100 uM of manganese. The ELISA solution was 1:1000 at 5% milk.

PIM-1 = target: T3, PIM-1 (Homo sapiens, UniProt P11309); test: PIM-1 kinase activity assay (MBP substrate, 33P-ATP FlashPlate)
T3 construct: expressing PIM-1 kinase domain (29-313) was suspended; made in house; host or cells: E. coli BL21(DE3)pLysS
T3 sequence (P11309 29-313): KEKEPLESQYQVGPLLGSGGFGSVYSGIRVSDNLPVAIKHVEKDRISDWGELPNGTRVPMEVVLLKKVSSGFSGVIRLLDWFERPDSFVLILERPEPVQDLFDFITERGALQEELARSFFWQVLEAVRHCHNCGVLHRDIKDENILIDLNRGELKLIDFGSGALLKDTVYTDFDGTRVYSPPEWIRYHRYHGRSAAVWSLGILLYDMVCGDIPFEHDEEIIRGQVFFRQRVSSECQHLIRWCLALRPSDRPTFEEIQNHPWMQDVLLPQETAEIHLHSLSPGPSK
Method: Inhibitory or exhitory activity of compounds binding to PIM-1 was determined using a kinase assay.
An assay for kinase activity that can be used for PIM kinases, e.g., PIM-1, can be performed according to the following procedure using purified kinase using myelin basic protein (MBP) as substrate.
Coat scintillation plate suitable for radioactivity counting (e.g., FlashPlate from Perkin-Elmer, such as the SMP200(basic)) with kinase+MBP mix (final 100 ng+300 ng/well) at 90-μL/well in kinase buffer. Add compounds at 1 μL/well from 10 mM stock in DMSO. Positive control wells are added with 1 μL of DMSO. Negative control wells are added with 2 μL of EDTA stock solution. ATP solution (10 μL) is added to each well to provide a final concentration of cold ATP is 2 μM, and 50 nCi ATPγ[^33P]. The plate is shaken briefly, and a count is taken to initiate count (IC) using an apparatus adapted for counting with the plate selected, e.g., Perkin-Elmer Trilux. Store the plate at 37° C. for 4 hrs, then count again to provide final count (FC).
Net 33P incorporation (NI) is calculated as: NI=FC−IC.
The effect of the present of a test compound can then be calculated as the percent of the positive control as: % PC=[(NI−NC)/(PC−NC)]×100, where NC is the net incorporation for the negative control, and PC is the net incorporation for the positive control. […]

T1 sequence (Q14289 420-691): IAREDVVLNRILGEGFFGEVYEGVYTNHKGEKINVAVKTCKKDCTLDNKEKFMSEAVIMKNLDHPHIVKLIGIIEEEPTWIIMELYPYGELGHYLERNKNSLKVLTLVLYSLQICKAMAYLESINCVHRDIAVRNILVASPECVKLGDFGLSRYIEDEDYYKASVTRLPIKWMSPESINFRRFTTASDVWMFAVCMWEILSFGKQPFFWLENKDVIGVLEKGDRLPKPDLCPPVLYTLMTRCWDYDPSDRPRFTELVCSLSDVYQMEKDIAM
T2 sequence (Q14289 425-683 limits assumed): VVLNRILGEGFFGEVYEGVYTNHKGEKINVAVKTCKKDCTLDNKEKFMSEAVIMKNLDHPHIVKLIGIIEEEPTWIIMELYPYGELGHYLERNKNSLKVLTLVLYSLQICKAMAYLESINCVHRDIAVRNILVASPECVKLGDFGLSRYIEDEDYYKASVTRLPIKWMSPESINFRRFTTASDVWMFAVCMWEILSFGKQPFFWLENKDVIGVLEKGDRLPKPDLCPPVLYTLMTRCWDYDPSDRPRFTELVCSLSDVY

affinity with Pyk2 [1]: 14 µM | IC50 [1]: 14.9 µM
Compound: Nc1ncnc2c1ncn2[C@@H]1O[C@H](COP(=O)(O)OP(=O)(O)O)[C@@H](O)[C@H]1O [ADT]

Compound: Nc1ncnc2c1ncn2[C@@H]1O[C@H](COP(=O)(O)OP(=O)(O)CP(=O)(O)O)[C@@H](O)[C@H]1O [AMPPCP]
IC50 [1]: 7690 µM | effect on PYK2 [1]: little effect

IC50 [1]: 18.1 µM
Compound: Nc1ncnc2c1ncn2C1OC(COP(=O)(O)OP(=O)(O)NP(=O)(O)O)C(O)C1O (centres unmarked) [AMPPNP, 5′-adenylylimidodiphosphate]

IC50 [1]: 80.2 µM
Compound: Nc1ncnc2c1ncn2[C@@H]1O[C@H](COP(=O)(O)O)[C@@H](O)[C@H]1O [AMP]

affinity with Pyk2 [1]: 14 µM | IC50 [1]: 13.6 µM
Compound: Nc1ncnc2c1ncn2[C@@H]1O[C@H](COP(=O)(O)OP(=O)(O)OP(O)(O)=S)[C@@H](O)[C@H]1O [ATP-g-S]

Compound: Nc1ncnc2c1ncn2[C@@H]1O[C@H](COP(=O)(O)OP(=O)(O)OP(=O)(O)O)[C@@H](O)[C@H]1O [ATP]
K (Pyk2 activity) ([2]; Pyk2 8 ng/well, 384-well plate, fit y = (Vmax*x)/(K + x)): 7.37 µM | Kd ([2]; Pyk2 at 8 ng/well in 384-well plate, AlphaScreen): 7.34 µM

effect on PYK2 [1]: little effect
Compound: Nc1ncnc2c1ncn2[C@@H]1O[C@H](CO)[C@@H](O)[C@H]1O [Adenosine]

IC50 (Pyk2): > 200 µM | inhibition at 200 µM (PIM-1; at 200 μM concentration): 8% | IC50 (PIM-1; read-out: IC50, inhibitory activity against PIM-1): > 200 µM
Compound: c1cnc2[nH]ccc2c1 [Formula III, R1=R2=R3=R4=R5=H]
